{"source": "ChEMBL document CHEMBL1142931", "about": "“Vascular disrupting agents” (Bioorg Med Chem, 2007)", "organism": "Homo sapiens", "assay": "Half life in human assessed as ZD-6126-phenol", "assay_type": "ADME, organism-based", "details": "in vivo", "data": [{"smiles": "COc1cc2c(c(OC)c1OC)-c1ccc(OP(=O)(O)O)cc1[C@@H](NC(C)=O)CC2", "note": "[ZD-6126]", "values": [{"measurement": "t1/2", "value": 2, "unit": "h"}]}]}
